Measurements from patent US20140154180A1, “Pharmacophores for Amyloid Fibers Involved in Alzheimer's Disease” (The Regents of the University of California, priority 2011, published 2014).
pKd: −log10 of the molar value. Entries after “also recorded” stand apart in the source; their conditions may differ.

Experiments:
Aβ fibrillation = Aβ fibrillation (Homo sapiens, UniProt P05067); experiment: Electron microscopy (EM) of Aβ with BAF compounds; details: Aβ with compound right before adding to the cell medium
[1] = tested on: Aβ toxicity to Hela cells; experiment: MTT cell viability assay, rescue from Abeta toxicity, Hela cells; assay type: cell-based; details: Table 7; scaled cell survival rate, buffer-treated cell 100%, Abeta-treated cell 0%; Abeta 0.5 μM; 12 h incubation
Source text: (§1) We tested candidate compounds by the MTT-based cell proliferation/viability assay, as described on the ATCC web site. Briefly, the ATCC MTT Cell Proliferation Assay quantitates the reduction of the yellow tetrazolium salt (MTT) in response to an external factor, such as treatment with a compound of the present invention, as a measure of a cell population's response to the external factor. The assay measures the cell proliferation rate and conversely, when metabolic events lead to apoptosis or necrosis, the reduction in cell viability. In our tests, Hela and PC12 cell lines were used to assess the toxic effect of Abeta protein. Abeta at 0.5 μM was a positive control. The small molecule inhibitors were added to samples with different concentrations (such as 2.5 μM). After 12 h incubation at room temperature, the absorbance of reduced MIT was measured at 570 nm. Each of the experiments was repeated 3 times with 4 replicates per sample per concentration. Our MTT cell viability assay quantified the percentage of survival cells upon the treatment of the mixture of Abeta and compound inhibitors. The rescuing percentage of each compound was calculated by normalizing the survival percentage using the buffer-treated cell as 100% viability and Abeta-treated cell as 0% viability.

[2] = tested on: Aβ toxicity to PC12 cells; experiment: MTT cell viability assay, rescue from Abeta toxicity, PC12 cells; assay type: cell-based; details: Table 7; scaled cell survival rate, buffer-treated cell 100%, Abeta-treated cell 0%; Abeta 0.5 μM; 12 h incubation
Source text: as §1

[3] = molecular target: T1, KLVFFA (SEQ ID NO: 1) fibers (Homo sapiens, UniProt P05067); experiment: 1H NMR titration with KLVFFA fibers; assay type: binding; details: compound 100 μM, increasing KLVFFA fiber concentrations, 283 K; read-out: apparent dissociation constant (Kd)
T1 construct: host or cells: chemically synthesized peptide
Method: As a validation of our computational approach, we used nuclear magnetic resonance (NMR) to characterize the interactions between our BAF compounds and KLVFFA (SEQ ID NO: 1) and Aβ fibers.
NMR samples contained 550 μL of designed compounds were added from 1 mM stocks in H2O to a final concentration of 100 μM. Fibrillar KLVFFA (SEQ ID NO: 1) and Abeta were added at the indicated concentrations. 500 MHz ^1H NMR spectra were collected on a Bruker DRX500 at 283 K. H2O resonance was suppressed through presaturation. Spectra were processed with XWINNMR 3.6.

[4] = tested on: Aβ toxicity to Hela and PC12 cell lines; experiment: MTT cell viability assay, Abeta toxicity, cell line not given; assay type: cell-based; details: FIG. 17B
Source text: as §1

[5] = molecular target: T2, VQIVYK (SEQ ID NO: 2) segment from the tau protein (Homo sapiens, UniProt P10636); experiment: LC-MSMS analysis of co-crystals, molar ratio, VQIVYK
T2 construct: host or cells: chemically synthesized peptide
Source text: Liquid chromatography tandem mass spectrometry (LC-MSMS) was used to measure the molar ratios of the peptide segments and the small molecules within the crystals. Authentic samples of the peptides and each of the small molecules were used to prepare standard response curves. Crystals from each of the four mixtures of peptides and small compounds were individually picked (using a sharpened glass capillary) and re-dissolved in 5%-10% acetonitrile. The samples were divided into two aliquots, one for the peptide analyses and the other for the small molecule analyses, and the amount of each component in the samples was interpolated using the standard curves.
Peptide standards (dry powder of VQIVYK (SEQ ID NO: 2) and KLVFFA (SEQ ID NO: 1)) were dissolved in water and prepared in concentrations ranging from 0.05 μM to 0.01 mM in 0.1% TFA. […] Data were collected in the positive ion multiple reaction monitoring (MRM) mode in which the intensity of specific parent→fragment ion transitions were recorded (VQIVYK (SEQ ID NO: 2), m/z 749.5→341.3, 749.5→409.4, 749.5→440.3, 749.5→522.5; KLVFFA (SEQ ID NO: 1), 724.4→84, 724.4→488.3, 362.7→84, 362.7→120.1). […]

Sequence of Aβ fibrillation (P05067 672-713): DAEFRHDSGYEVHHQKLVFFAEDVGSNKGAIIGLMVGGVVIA

Structure (SMILES)	inhibition of Aβ fibrillation (EM) (Aβ fibrillation)	Rescuing Percentage Hela [1] [%]	Rescuing Percentage PC12 [2] [%]	pKd [3]	dose dependence of reduction of Aβ cytotoxicity [4]	VQIVYK segments for each small molecule [5]
O=C1OC2(c3ccccc31)c1cc(Br)c(O)c(Br)c1Oc1c2cc(Br)c(O)c1Br [BAF1]	do not inhibit Aβ fibrillation	41.3	44.3	~4.92	–	–
Cc1ccc(O)c(N=Nc2c(O)cc(S(=O)(=O)O)c3ccccc23)c1 [BAF8]	do not inhibit Aβ fibrillation	27.1	25.1	~4.62	–	–
O=c1c(O)c(-c2cc(O)c(O)c(O)c2)oc2cc(O)cc(O)c12 [BAF26]	–	51.4	85.5	–	–	–
CCCN1CCc2cc(O)cc3c2C1Cc1ccc(O)c(O)c1-3 (centres unmarked) [BAF31]	do not inhibit Aβ fibrillation	83.0	92.6	–	reduce Aβ cytotoxicity in a dose dependent manner; also recorded: reduce Aβ cyto-toxicity in a dose dependent manner	–
CC(=C(C#N)C#N)c1ccc2cc(N(C)C)ccc2c1 [DDNP, 1,1-Dicyano-2-[6-(dimethylamino)naphthalen-2-yl]propene]	–	–	–	–	–	~400
O=S(=O)(O)c1cc(S(=O)(=O)O)c2c(/N=N/c3ccccc3)c(O)ccc2c1 [Orange-G, reference compound]	–	–	–	~4.37	–	–
COc1cc(/C=C/C(=O)CC(=O)/C=C/c2ccc(O)c(OC)c2)ccc1O [curcumin, Curcumin]	–	–	–	–	–	~100
